The text below walks through data of patent publication US6337192B1, “MMSC1-an MMAC1 interacting protein” (Myraid Genetics, Inc., priority 1998, dated 2002).

* marks the point of attachment. Biotin = O=C1N[C@H]2[C@H](CS[C@H]2CCCCC(=O)*)N1

Experiment [1] deals with T1, MMSc1 PDZ 9 (Homo sapiens, UniProt Q8NI35).
T1 construct: made in house; host or cells: E. coli
T1 sequence (Q8NI35 1533-1615 limits assumed): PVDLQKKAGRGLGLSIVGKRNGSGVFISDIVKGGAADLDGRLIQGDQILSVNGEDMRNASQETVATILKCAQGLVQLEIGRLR
In words: Peptide binding ELISA assay (PDZ Binding Assay), MMSC1 PDZ domain 9. As to conditions: immobilized GST fusion of MMSc1 PDZ 9; biotinylated peptide pre-bound to streptavidin-alkaline phosphatase; colorimetric phosphatase assay. An excerpt:
(§1) cDNAs encoding each of the MMSC1 PDZ domains (amino acid residues identified in Table 1), and any desired control proteins, were generated by PCR and subcloned as glutathione S-transferase (GST) fusions in pGEX vectors (Pharmacia). After sequencing to confirm expression construct integrity, the resulting clones were expressed in E. coli and the desired fusion proteins isolated with glutathione-agarose and recovered with glutathione elution. These fusion proteins or control proteins were then adsorbed to different wells of a 96-well ELISA plate and remaining sites blocked with BSA. Synthetic commercially synthesized peptides encoding the desired PDZ-binding domain (i.e., the 16 C-terminal amino acids of MMAC1, or the C-terminal peptide sequences of interacting proteins identified by the approach of Example 2, or the C-terminal peptide sequences identified by the approach of Example 3), or a control peptide, and biotinylated at the amino-terminus, were pre-bound to streptavidin-alkaline phosphatase in a 4:1 molar ratio. The biotinylated peptide streptavidin-alkaline phosphatase complexes were then blocked with free biotin. These pre-bound peptide streptavidin-alkaline phosphatase complexes were then incubated with the immobilized PDZ domains in wash buffer containing PBS, BSA and triton-X100. Unbound material was removed with repeated washes. Bound peptide/streptavidin-alkaline phosphatase complex was then quantitated by a colorimetric phosphatase assay read on a 96-well plate reader.
(§2) The following peptides were used in the initial study: […]
On the technique in general: In an ELISA, binding on a coated surface is turned into a signal by an enzyme label.

In experiment [2] the target is T2, MMSc1 PDZ 7 (Homo sapiens, UniProt Q8NI35).
T2 construct: made in house; host or cells: E. coli
T2 sequence (Q8NI35 1239-1322 limits assumed): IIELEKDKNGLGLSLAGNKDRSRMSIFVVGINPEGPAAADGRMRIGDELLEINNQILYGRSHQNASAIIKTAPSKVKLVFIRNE
Put plainly: Peptide binding ELISA assay (PDZ Binding Assay), MMSC1 PDZ domain 7. As to conditions: immobilized GST fusion of MMSc1 PDZ 7; biotinylated peptide pre-bound to streptavidin-alkaline phosphatase; colorimetric phosphatase assay.
Description: as §1, §2

For experiment [3], the target named is T3, MMSc1 PDZ 6 (Homo sapiens, UniProt Q8NI35).
T3 construct: made in house; host or cells: E. coli
T3 sequence (Q8NI35 1068-1160 limits assumed): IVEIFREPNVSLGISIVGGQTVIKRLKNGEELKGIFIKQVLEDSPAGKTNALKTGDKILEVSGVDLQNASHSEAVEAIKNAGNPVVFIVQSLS
In words: Peptide binding ELISA assay (PDZ Binding Assay), MMSC1 PDZ domain 6. As to conditions: immobilized GST fusion of MMSc1 PDZ 6; biotinylated peptide pre-bound to streptavidin-alkaline phosphatase; colorimetric phosphatase assay.
Description: as §1, §2

Experiment [4] addresses T4, MMSc1 PDZ 8 (Homo sapiens, UniProt Q8NI35).
T4 construct: made in house; host or cells: E. coli
T4 sequence (Q8NI35 1437-1520 limits assumed): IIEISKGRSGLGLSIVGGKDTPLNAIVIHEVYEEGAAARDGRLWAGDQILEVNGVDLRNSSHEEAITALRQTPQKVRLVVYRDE
Put plainly: Peptide binding ELISA assay (PDZ Binding Assay), MMSC1 PDZ domain 8. As to conditions: immobilized GST fusion of MMSc1 PDZ 8; biotinylated peptide pre-bound to streptavidin-alkaline phosphatase; colorimetric phosphatase assay.
Description: as §1, §2

The target in experiment [5] is T5, MMSc1 PDZ 5 (Homo sapiens, UniProt Q8NI35).
T5 construct: made in house; host or cells: E. coli
T5 sequence (Q8NI35 686-772 limits assumed): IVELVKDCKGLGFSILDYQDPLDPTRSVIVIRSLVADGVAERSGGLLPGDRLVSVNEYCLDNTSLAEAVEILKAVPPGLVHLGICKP
Put plainly: Peptide binding ELISA assay (PDZ Binding Assay), MMSC1 PDZ domain 5. As to conditions: immobilized GST fusion of MMSc1 PDZ 5; biotinylated peptide pre-bound to streptavidin-alkaline phosphatase; colorimetric phosphatase assay.
Description: as §1, §2

Experiment [6] addresses T6, MMSc1 PDZ 3 (Homo sapiens, UniProt Q8NI35).
T6 construct: made in house; host or cells: E. coli
T6 sequence (Q8NI35 365-453 limits assumed): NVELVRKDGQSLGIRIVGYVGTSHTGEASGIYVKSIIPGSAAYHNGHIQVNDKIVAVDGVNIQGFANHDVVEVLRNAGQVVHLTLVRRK
Put plainly: Peptide binding ELISA assay (PDZ Binding Assay), MMSC1 PDZ domain 3. As to conditions: immobilized GST fusion of MMSc1 PDZ 3; biotinylated peptide pre-bound to streptavidin-alkaline phosphatase; colorimetric phosphatase assay.
Description: as §1, §2

As for Biotin-ENEPFDEDQHTQITKV-OH [MMAC], the A405 worked out at 0.10 in experiment [1]; 1.25 in experiment [2]; 0.23 in experiment [3]; 0.30 in experiment [4]; 0.00 in experiment [5]; 0.01 in experiment [6].

As to Biotin-SGDDGDDPFLQYEFYV-OH [AF6], the A405 in experiment [1] stood at 2.41; in experiment [2] it was 1.05; in experiment [3], 1.46; in experiment [4], 0.29; in experiment [5], 0.02; in experiment [6], 2.24.

Regarding Biotin-SGSGILAPPVPPRNTR-OH [SH3], the A405 turned out to be 0.02 in experiment [1]; 0.01 in experiment [2]; 0.00 in experiment [3]; 0.00 in experiment [4]; 0.00 in experiment [5]; 0.01 in experiment [6].
